Test results: PubChem BioAssay AID1963844 (Molecular Pharmacology Branch, DTP, NCI, 2024)
pIC50: −log10 of the molar value.

System: 422866-222-R5-J1-PDC complex spheroid viability
Experiment: Anticancer human tumor 422866-222-R5-J1-PDC patient-derived pancreatic adenocarcinoma cell line growth inhibition [POLQ]
Conditions: for pIC50: curve of first compound; for viability, T/C: stronger effect = lower value
Experimental: Multicellular complex tumor spheroid response to Polymerase (POL) inhibitors (novobiocin, ART-558, RP6685) in combination with a variety of drugs and investigational agents in selected tumor cell lines
The POL inhibitors (novobiocin, ART-558, and RP6685) were evaluated both individually and in combination with standard of care and investigational anticancer small molecules within a complex spheroid model of solid tumors. . Complex spheroids include a stromal component modeled by human endothelial cells (HUVEC) and fibroblasts modeled by human mesenchymal stem cells (MSCs). The concentration ranges selected for each drug and investigational agent were based upon clinically achievable concentrations if the clinical Cmax of the agent was known.
Compounds. The drugs and investigational agents: novobiocin (NSC847541), ART-558 (NSC835418), RP-6685 (NSC848927), peposertib (NSC802822), ceralasertib (NSC780249), elimusertib (NSC800525), camonsertib (NSC841442), AZD-1390 (NSC803789), olaparib (NSC753686), talazoparib (NSC767125), rucaparib (NSC756644), sotorasib (NSC818433), MRTX-1133 (NSC836407), SN-38 (NSC673596), topotecan (NSC609699), epotoside (NSC141540), doxorubicin (NSC123127), gemcitabine (NSC613327), 5-fluorouracil (NSC19893), paclitaxel (NSC125973), vemurafenib (NSC761431), MSA-2 (NSC828583), SN-011 (NSC837082), adavosertib (NSC754352), prexasertib (NSC758257), carboplatin (NSC241240) and oxaliplatin (NSC266046), were obtained from the National Cancer Institute (NCI) Developmental Therapeutics Program Chemical Repository (21). The FDA-approved anticancer drug set is available from the Developmental Therapeutics Program at https://dtp.cancer.gov/organization/dscb/obtaining/. […] The stock solutions were prepared in dimethyl sulfoxide (DMSO, Sigma-Aldrich, St. Louis, MO, cat. D2650), except for the platinum compounds which were prepared in saline (Quality Biological, Gaithersburg, MD, cat. 114-055-101), at 800-fold the tested concentration and stored at -70 degrees C prior to their use. All drugs and investigational agents were tested over a range starting from a high concentration at or near the clinical Cmax and decreasing in half-log increments. If the clinical Cmax for an agent had not been determined, the highest concentration tested was 10 microM, except for SN-38, which was tested at a high concentration of 1 microM.
Cell Culture. All cells were maintained in an incubator at 37 degrees C and 5% CO2 with 95% humidity. The PDC lines were cultured according to standard operating procedures established by the NCI PDMR (https://pdmr.cancer.gov). Table 3 of the manuscript, lists the cell lines along with the number of the three cell types plated to form the mct-spheroids and media for tumor cell growth. After thawing, all PDC lines, except 997537-175-T-J1-PDC and 415267-285-R-J2-PDC, were cultured in Matrigel-coated flasks prepared with a working solution of 1X Ham's F-12 nutrient mix, without supplementation (Thermo Fisher Scientific, cat. 11765054), 100 U/mL penicillin-streptomycin (Thermo Fisher Scientific, cat. 15140122), and 2.5% Matrigel (Corning Inc., Corning, NY, cat. 354248) for the first three passages. The two PDC lines 997537-175-T-J1-PDC and 415267-285-R-J2-PDC were cultured on uncoated flasks. The 857933-349-R-J2-PDC line was cultured in 6C/Colon 1B media containing advanced DMEM/F-12 (Thermo Fisher Scientific, cat. 12634028), 10 mM HEPES (Thermo Fisher Scientific, cat. 15630080), 1X GlutaMAX supplement (Thermo Fisher Scientific, cat. 35050061), 0.1 mg/mL primocin (InvivoGen, San Diego, CA, cat. ant-pm-2), 10% defined fetal bovine serum, heat inactivated (HyClone Laboratories Inc., Logan, UT, cat. SH30070.03HI), 50% L-WRN conditioned media (ATCC, cat. CRL-3276), 1.25 mM N-Acetyl-L-cysteine (Sigma-Aldrich, cat. A9165), 10 mM nicotinamide (Sigma-Aldrich, cat. N0636), 1X B-27 supplement (Thermo Fisher Scientific, cat. 17504044), 1X N-2 supplement (Thermo Fisher Scientific, cat. […]
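Also: spheroids exposed to compounds for one week before readout.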
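For viability, T/C in this document: percent of DMSO vehicle wells luminescence so 100% = untreated viability.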

`O=C(c1cc(Cc2n[nH]c(=O)c3ccccc23)ccc1F)N1CCN(C(=O)C2CC2)CC1` + COC1C(OC(N)=O)C(O)C(Oc2ccc3c(O)c(NC(=O)c4ccc(O)c(CC=C(C)C)c4)c(=O)oc3c2C)OC1(C)C gave a pIC50 (second compound 0.0316 µM) greater than 7.50, a pIC50 (second compound 0.1 µM) greater than 7.50 and a pIC50 (second compound 0.316 µM) greater than 7.50. It also gave a pIC50 (second compound 1 µM) greater than 7.50, a pIC50 (second compound 3.16 µM) greater than 7.50 and a pIC50 (second compound 10 µM) greater than 7.50. For the same molecule, the viability, T/C (second compound 0.0316 µM, first compound 0.0316 µM) was 40.5%, the viability, T/C (second compound 0.0316 µM, first compound 0.1 µM) was 40.1% and the viability, T/C (second compound 0.0316 µM, first compound 0.316 µM) was 42.3%. It also gave a viability, T/C (second compound 0.0316 µM, first compound 1 µM) of 38.2%, a viability, T/C (second compound 0.0316 µM, first compound 3.16 µM) of 34% and a viability, T/C (second compound 0.0316 µM, first compound 10 µM) of 27.5%. For the same molecule, the viability, T/C (second compound 0.1 µM, first compound 0.0316 µM) was 40.1%, the viability, T/C (second compound 0.1 µM, first compound 0.1 µM) was 42.5% and the viability, T/C (second compound 0.1 µM, first compound 0.316 µM) was 41.2%. The viability, T/C (second compound 0.1 µM, first compound 1 µM) was 35.4%, the viability, T/C (second compound 0.1 µM, first compound 3.16 µM) was 36.4% and the viability, T/C (second compound 0.1 µM, first compound 10 µM) was 26.3%. It also gave a viability, T/C (second compound 0.316 µM, first compound 0.0316 µM) of 43.5%, a viability, T/C (second compound 0.316 µM, first compound 0.1 µM) of 35.9% and a viability, T/C (second compound 0.316 µM, first compound 0.316 µM) of 35.7%. The viability, T/C (second compound 0.316 µM, first compound 1 µM) was 37.9%, the viability, T/C (second compound 0.316 µM, first compound 3.16 µM) was 31% and the viability, T/C (second compound 0.316 µM, first compound 10 µM) was 27.5%. For the same molecule, the viability, T/C (second compound 1 µM, first compound 0.0316 µM) was 35.9%, the viability, T/C (second compound 1 µM, first compound 0.1 µM) was 32% and the viability, T/C (second compound 1 µM, first compound 0.316 µM) was 37.1%. For the same molecule, the viability, T/C (second compound 1 µM, first compound 1 µM) was 37.4%, the viability, T/C (second compound 1 µM, first compound 3.16 µM) was 27.4% and the viability, T/C (second compound 1 µM, first compound 10 µM) was 24.5%. It also gave a viability, T/C (second compound 3.16 µM, first compound 0.0316 µM) of 39.9%, a viability, T/C (second compound 3.16 µM, first compound 0.1 µM) of 34.6% and a viability, T/C (second compound 3.16 µM, first compound 0.316 µM) of 38.4%. It also gave a viability, T/C (second compound 3.16 µM, first compound 1 µM) of 36.7%, a viability, T/C (second compound 3.16 µM, first compound 3.16 µM) of 33.7% and a viability, T/C (second compound 3.16 µM, first compound 10 µM) of 28.3%. The viability, T/C (second compound 10 µM, first compound 0.0316 µM) was 38.9%, the viability, T/C (second compound 10 µM, first compound 0.1 µM) was 30.9% and the viability, T/C (second compound 10 µM, first compound 0.316 µM) was 35.7%. The viability, T/C (second compound 10 µM, first compound 1 µM) was 32.9%, the viability, T/C (second compound 10 µM, first compound 3.16 µM) was 29.3% and the viability, T/C (second compound 10 µM, first compound 10 µM) was 27.8%.
